Experimental data published in PMC6277375, “Pharmacological profile of the neuropeptide S receptor: Dynamic mass redistribution studies” (Pharmacology Research & Perspectives, 2018).
Marks after values point to notes of the source that are not given here. Square brackets hold non-standard residues; d marks the D form. Ends that are not written are not given here. Peptide text beside a SMILES is read from it. Bip = N[C@@H](Cc1ccc(-c2ccccc2)cc1)C(=O)O; Aib = CC(C)(N)C(=O)O

Experiments:
murine NPSR = biological target: T1, murine NPSR (Mus musculus, UniProt Q8BZP8); test: Dynamic mass redistribution (DMR) assay in HEK293mNPSR cells; type: cell-based; details: for DMR response, HEK293mNPSR pm ± SEM: peak at 60 minute, mean ± SEM, duplicate; for EC50 / intrinsic activity α ± SEM / Agonist potency pEC50 (CL95%): DMR; for EC50 / Agonist potency pEC50 (CL95%): agonism protocol, 60 minute recording, at least three experiments in duplicate; for EC50: read-out: Agonist potency pEC50 (CL95%) (converted); for fold less potent than NPS (DMR): agonist potency relative to NPS; for Effect of inhibitor on NPS-evoked DMR response: FR900359 1 μmol L^−1 (60 minute before NPS), PTX 100 ng mL^−1 (24 hours before), rolipram 10 μmol L^−1 (90 minute before)
T1 construct: expressed in transfected cells
T1 sequence (Q8BZP8 1-371): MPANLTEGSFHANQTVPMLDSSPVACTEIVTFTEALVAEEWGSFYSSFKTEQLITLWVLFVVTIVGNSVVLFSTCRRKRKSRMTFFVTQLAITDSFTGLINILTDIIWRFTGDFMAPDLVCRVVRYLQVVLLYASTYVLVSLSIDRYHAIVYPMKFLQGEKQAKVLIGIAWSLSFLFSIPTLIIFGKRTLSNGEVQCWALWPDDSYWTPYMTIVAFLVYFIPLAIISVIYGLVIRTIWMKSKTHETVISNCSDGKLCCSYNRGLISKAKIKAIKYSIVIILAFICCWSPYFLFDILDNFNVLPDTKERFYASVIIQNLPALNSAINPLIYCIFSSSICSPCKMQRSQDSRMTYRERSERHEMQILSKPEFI
Procedure: (§1) HEK293 cells stably expressing the murine NPSR receptor (HEK293mNPSR) were described previously.3 Wild‐type HEK293 cells were used as a control. Cells were maintained in Dulbecco's Medium (DMEM) supplemented with 10% fetal bovine serum, 100 U/mL penicillin, 100 μg/mL streptomycin and, 2 mmol L^−1 L‐glutamine. The medium was complemented with 100 mg/L hygromycin for HEK293mNPSR. Cells were cultured at 37°C in 5% CO2 humidified air.
Confluent cells were subcultured using trypsin/EDTA and used for experiments. […] On the day of the experiment, cells were manually washed twice and maintained with assay buffer for 90 minutes before DMR experiments. DMR was monitored in real time with a temporal resolution of 22 seconds throughout the assay. Experiments were performed at 37°C, using an EnSight Multimode Plate Reader (PerkinElmer), that uses the Corning® Epic® Technology to measure the DMR signal. Agonism protocol: a 5‐minute baseline was first established, followed by adding compounds manually in a volume of 10 μL and recording compounds‐triggered DMR signal for 60 minute. Antagonism protocol: antagonists were added manually 25 minute before reading the 5‐minute baseline. After baseline establishment, NPS was injected and DMR signal was recorded for 60 minute. Antagonist properties of ligands were measured by assessing the concentration‐response curve to NPS in the absence and in presence of a fixed concentration of compound. FR900359 was added 60 minute before NPS, rolipram was incubated for 90 minute before NPS, while PTX was added 24 hours before NPS. Maximum picometer (pm) modifications (peak measured at 60 minute time point) were used to determine agonist response after baseline normalization.
All data were analyzed using Graph Pad Prism 6.0 (La Jolla, CA, USA). Concentration‐response curves were fitted using the four parameters log logistic equation. Data are expressed as mean ± SEM of n experiments performed in duplicate and were analyzed using one‐ or two‐way analysis of variance (ANOVA) followed by Dunnett's or Tukey's test for multiple comparisons wherever appropriate. […] Antagonists potencies were assayed at single concentrations against the concentration‐response curve to NPS and their pA2 was derived using the following equation: pA2 = log(CR − 1) − log[A], where CR is the ratio between agonist potency (EC50) in the presence and in absence of antagonist and [A] is the molar concentration of antagonist.

wild-type HEK293 cells = test: DMR assay in wild-type HEK293 cells (control); type: cell-based, Human; details: mean ± SEM, duplicate
Procedure: as §1
Confluent cells were subcultured using trypsin/EDTA and used for experiments. Cells were seeded at a density of 20 000 cells/well in 30 μL into fibronectin‐coated Enspire™‐LC 384‐wells plates and cultured for 20 hours to form a confluent monolayer. On the day of the experiment, cells were manually washed twice and maintained with assay buffer for 90 minutes before DMR experiments. DMR was monitored in real time with a temporal resolution of 22 seconds throughout the assay. Experiments were performed at 37°C, using an EnSight Multimode Plate Reader (PerkinElmer), that uses the Corning® Epic® Technology to measure the DMR signal. Agonism protocol: a 5‐minute baseline was first established, followed by adding compounds manually in a volume of 10 μL and recording compounds‐triggered DMR signal for 60 minute. Antagonism protocol: antagonists were added manually 25 minute before reading the 5‐minute baseline. After baseline establishment, NPS was injected and DMR signal was recorded for 60 minute. Antagonist properties of ligands were measured by assessing the concentration‐response curve to NPS in the absence and in presence of a fixed concentration of compound. FR900359 was added 60 minute before NPS, rolipram was incubated for 90 minute before NPS, while PTX was added 24 hours before NPS. Maximum picometer (pm) modifications (peak measured at 60 minute time point) were used to determine agonist response after baseline normalization.
All data were analyzed using Graph Pad Prism 6.0 (La Jolla, CA, USA). Concentration‐response curves were fitted using the four parameters log logistic equation. Data are expressed as mean ± SEM of n experiments performed in duplicate and were analyzed using one‐ or two‐way analysis of variance (ANOVA) followed by Dunnett's or Tukey's test for multiple comparisons wherever appropriate. Agonist potency was expressed as pEC50, which is the negative logarithm to base 10 of the agonist molar concentration that produces 50% of the maximal possible effect of that agonist. Antagonists potencies were assayed at single concentrations against the concentration‐response curve to NPS and their pA2 was derived using the following equation: pA2 = log(CR − 1) − log[A], where CR is the ratio between agonist potency (EC50) in the presence and in absence of antagonist and [A] is the molar concentration of antagonist.

[1] = ligand 1 μmol L^−1, 37°C, peak at 60 minute
[2] = ligand 10 μmol L^−1, 37°C, peak at 60 minute after baseline normalization

| Compound | intrinsic activity α ± SEM (murine NPSR; relative to NPS = 1.00, SEM) | fold less potent than NPS (DMR) (murine NPSR) | DMR response, HEK293mNPSR pm ± SEM (murine NPSR; ligand 10 μmol L^−1, 37°C) | DMR response, HEK293 pm ± SEM (wild-type HEK293 cells; [2]) | other results |
| --- | --- | --- | --- | --- | --- |
| C[N+](C)(C)CCOC(N)=O [Carbachol, reference compound] |  |  |  |  | DMR response, HEK293mNPSR pm ± SEM (murine NPSR; ligand 100 μmol L^−1, 37°C): 393 ± 9 ^a pm; DMR response, HEK293 pm ± SEM (wild-type HEK293 cells; ligand 100 μmol L^−1, 37°C, peak at 60 minute): 480 ± 51 ^a pm |
| CSCC[C@H](NC(=O)CNC(=O)[C@@H](NC(=O)CNC(=O)[C@@H](NC(=O)C(C)(C)NC(=O)[C@H](CC(N)=O)NC(=O)[C@H](CCCNC(=N)N)NC(=O)[C@H](Cc1ccccc1)NC(=O)[C@@H](N)CO)C(C)C)[C@@H](C)O)C(=O)N[C@@H](CCCCN)C(=O)N[C@@H](CCCCN)C(=O)N[C@H](C(=O)N[C@@H](CO)C(=O)N[C@@H](Cc1ccccc1)C(=O)N[C@@H](CCC(N)=O)C(=O)N[C@@H](CCCNC(=N)N)C(=O)N[C@@H](C)C(=O)N[C@@H](CCCCN)C(=O)N[C@@H](CO)C(=O)O)[C@@H](C)O [[Aib^5]NPS] (H-SFRN[Aib]VGTGMKKTSFQRAKS-OH) |  |  |  |  | EC50 (murine NPSR): 0.145 µM |
| CSCC[C@H](NC(=O)CNC(=O)[C@@H](NC(=O)CNC(=O)[C@@H](NC(=O)CNC(=O)[C@H](CC(N)=O)NC(=O)[C@H](CCCNC(=N)N)NC(=O)[C@H](Cc1ccc(-c2ccccc2)cc1)NC(=O)[C@@H](N)CO)C(C)C)[C@@H](C)O)C(=O)N[C@@H](CCCCN)C(=O)N[C@@H](CCCCN)C(=O)N[C@H](C(=O)N[C@@H](CO)C(=O)N[C@@H](Cc1ccccc1)C(=O)N[C@@H](CCC(N)=O)C(=O)N[C@@H](CCCNC(=N)N)C(=O)N[C@@H](C)C(=O)N[C@@H](CCCCN)C(=O)N[C@@H](CO)C(=O)O)[C@@H](C)O [[Bip^2]NPS] (H-S[Bip]RNGVGTGMKKTSFQRAKS-OH; N-terminus and C-terminus assumed) | 1.01 ± 0.04 | approximately 30 fold | 761 ± 60 ^a pm | 191 ± 30 ^a pm | DMR response, HEK293mNPSR pm ± SEM (murine NPSR; ligand 1 μmol L^−1, 37°C): 577 ± 2 ^a pm; DMR response, HEK293 pm ± SEM (wild-type HEK293 cells; [1]): 47 ± 16 pm |
| CSCC[C@H](NC(=O)CNC(=O)[C@@H](NC(=O)CNC(=O)[C@@H](NC(=O)[C@@H](C)NC(=O)[C@H](CC(N)=O)NC(=O)[C@H](CCCNC(=N)N)NC(=O)[C@H](Cc1ccccc1)NC(=O)[C@@H](N)CO)C(C)C)[C@@H](C)O)C(=O)N[C@@H](CCCCN)C(=O)N[C@@H](CCCCN)C(=O)N[C@H](C(=O)N[C@@H](CO)C(=O)N[C@@H](Cc1ccccc1)C(=O)N[C@@H](CCC(N)=O)C(=O)N[C@@H](CCCNC(=N)N)C(=O)N[C@@H](C)C(=O)N[C@@H](CCCCN)C(=O)N[C@@H](CO)C(=O)O)[C@@H](C)O [[D‐Ala^5]NPS] (H-SFRN[dA]VGTGMKKTSFQRAKS-OH; N-terminus and C-terminus assumed) | 1.09 ± 0.04 | approximately 30 fold | 686 ± 50 ^a pm | 55 ± 14 pm |  |
| COc1ccc(C2CNC(=O)C2)cc1OC1CCCC1 (stereo not shown) [rolipram, reference compound] |  |  |  |  | Effect of inhibitor on NPS-evoked DMR response (murine NPSR): did not change NPS effects |
| FRNGVGTGMKKTSFQRAKS [NPS(2‐20)] | 1.14 ± 0.05 | approximately 30 fold | 782 ± 46 ^a pm | 70 ± 10 pm |  |
| NPS(1‐6): NPS fragment (SFRNGV; Neuropeptide S; UniProt P0C0P6 70-75, looked up, fragment) |  |  | 356 ± 48 ^a pm | 25 ± 10 pm | Agonist potency pEC50 (CL95%) (murine NPSR): crc incomplete; intrinsic activity α ± SEM (murine NPSR; relative to NPS = 1.00): crc incomplete |
| NPS(3‐20): NPS fragment (RNGVGTGMKKTSFQRAKS; Neuropeptide S; UniProt P0C0P6 72-89, looked up, fragment) |  |  | 675 ± 54 ^a pm | 166 ± 14 ^a pm | Agonist potency pEC50 (CL95%) (murine NPSR): crc incomplete; intrinsic activity α ± SEM (murine NPSR; relative to NPS = 1.00): crc incomplete; DMR response, HEK293mNPSR pm ± SEM (murine NPSR; ligand 1 μmol L^−1, 37°C): 315 ± 17 ^a pm; DMR response, HEK293 pm ± SEM (wild-type HEK293 cells; [1]): 41 ± 14 pm |
| Pertussis Toxin [PTX] |  |  |  |  | Effect of inhibitor on NPS-evoked DMR response (murine NPSR): did not modify NPS‐evoked DMR response |
| SFRNGVATGMKKTSFQRAKS [[Ala^7]NPS] | 1.03 ± 0.03 |  | 692 ± 15 ^a pm | 115 ± 33 pm |  |
| SFRNGVGTGM [NPS(1‐10)] | 1.09 ± 0.14 | 100 fold | 683 ± 90 ^a pm | 27 ± 6 pm | fold less potent than NPS (DMR) (murine NPSR; listed as NPS (1‐10)): approximately 100 fold |
| SFRNGVGTGMKKTSFQRAKS [NPS, Neuropeptide S] |  |  |  |  | EC50 (murine NPSR): 0.00166 µM |
| [D‐Val^5]NPS |  |  |  |  | Agonist potency pEC50 (CL95%) (murine NPSR): Inactive; intrinsic activity α ± SEM (murine NPSR; relative to NPS = 1.00): Inactive |
